pIC50: −log10 of the molar value.
Assays:
A549 cells = assay: Microarray gene expression analysis in A549 cells; format: cell-based, human; conditions: inhibitor 1 hour before L/I for 6 hours
Method: Microarray gene expression analyses have been performed in which A549 cells were incubated without or with LY294002 or wortmannin for 1 hour before the addition of L/I for 6 hours. […] The mRNAs of other kinases that were increased by LY294002 included that encoding CK2α′ (1.8-fold; GenBank accession #M55268). Since CK2 can regulate both G1 and G2/M cell cycle transitions, the effects of LY294002 and LY303511 on CK2 activity were assessed.

recombinant CK2 = target: T1, recombinant CK2 (Homo sapiens, UniProt P68400); assay: Casein kinase 2 activity kit, 32P incorporation into substrate peptide; format: biochemical
T1 construct: purchased Upstate Biotechnology 17-132 (number of the activity kit, not of the enzyme)
Method: FIGS. 5A-5B are bar graphs showing that LY303511 inhibits the cell cycle by causing combined G1 and G2/M arrest and that LY303511 inhibits CK2 activity. For the data shown in FIG. 5A, PASM cells were cultured in medium with FBS for 48 hours before the addition of 0-100 μM LY303511 without or with raparnycin, 400 ng/ml, for 24 hours. Cells were then harvested and incubated with propidium iodide for 2 hours before counting using a Becton-Dickson FACSCalibur. Data are the means (±SEM) of percentages of cells in G1, S, or G2/M phase of the cell cycle in three experiments with duplicate assays. *p<0.05 vs. DMSO control, or †p<0.05 vs. 10 μM LY303511, by Student's t—test. FIG. 5B is a bar graph showing that LY303511 or LY294002 inhibits CK2 in vitro. As per the manufacturer (Upstate Biotechnologies), 0 or 100 ng of recombinant CK2 were incubated with CK2 substrate peptide and ^32P-γ-ATP for 10 min with 1% DMSO or inhibitors as indicated. Data are the means of values for samples with inhibitors expressed as percentage of that for control, which was (mean±SEM) 0.2±0.03 pmol phosphate/100 ng protein/10 min. Data are from three experiments performed in duplicate. *p<0.05 by Student's t-test when compared to DMSO control.
One specific assay for casein kinase 2 activity is available commercially as a kit from Upstate Biotechnology (New York). The assay is based on phosphorylation of a specific substrate (CK-2 substrate peptide) using the transfer of the gamma-phosphate of ^32P-ATP by casein kinase 2 during a 10 minute incubation at 30° C. The phosphorylated substrate is then separated from the residual ^32P-ATP using P81 phosphocellulose paper, and quantified by scintillation counting.
Casein kinase 2 (CK2) activity (counts per rninute) was measured using a casein kinase 2 activity kit (Upstate Biotechnology catalogue number 17-132) by incubating recombinant 100 ng CK2, magnesium/ATP cocktail (10 mcCi ^32P-garnma-ATP, 0.675 micromoles MgCl2, 4.5 nmoles ATP), and 10 micromoles peptide substrate (arnino acid sequence RRRDDDSDDD (SEQ ID NO: 1) in 50 mcl assay buffer without or with the indicated concentrations of DMSO (1%), LY294002, LY303511, or rapamycin for 10 minutes at 30° C. Assays were stopped with 20 mcl of 40% trichloroacetic acid, and 25 mcl were spotted on P81 phosphocellulose paper squares before washing 3 times with 0.75% phosphoric acid, and once with acetone. 32P incorporation on the substrate peptide was detected by counting the phosphocellulose squares in 5 ml scintillation fluid using a Packard 100 Tri-Carb liquid scintillation counter.
Measurement of casein kinase 2 (CK2) activity: CK2 activity (counts per minute) was measured using a CK2 activity kit (Upstate, Charlottesville, Va.) by incubating 100 ng of recombinant CK2, rnagnesium/ATP cocktail (10 μCi ^32P-gamma-ATP, 0.675 μmol MgCl2, 4.5 nmol ATP), and 10 μmol peptide substrate (amino acid sequence RRRDDDSDDD) in 50 μl assay buffer (20 mM MOPS, pH 7.2, 5 mM EGTA, 25 mM β-glycerol phosphate, 1 mM sodium orthovanadate, 1 mM dithiothreitol) without or with the indicated concentrations of LY294002, LY303511, wortmannin or rapamycin in 1% DMSO for 10 min at 30° C. Assays were stopped with 20 μl of 40% trichloroacetic acid, and samples (25 μl) of supernatant were applied to P81 phosphocellulose paper squares, which were then washed three times with 0.75% phosphoric acid, and once with acetone. ^32P in the substrate peptide was quantified using a Packard 100 Tri-Carb liquid scintillation counter on phosphocellulose squares in 5 ml of scintillation fluid. Activity is expressed as pmol phosphate incorporated per 10 minutes. CK2 activity measured in the presence of inhibitors was divided by that measured for the DMSO control (=100% control).

T1 sequence (P68400 whole entry): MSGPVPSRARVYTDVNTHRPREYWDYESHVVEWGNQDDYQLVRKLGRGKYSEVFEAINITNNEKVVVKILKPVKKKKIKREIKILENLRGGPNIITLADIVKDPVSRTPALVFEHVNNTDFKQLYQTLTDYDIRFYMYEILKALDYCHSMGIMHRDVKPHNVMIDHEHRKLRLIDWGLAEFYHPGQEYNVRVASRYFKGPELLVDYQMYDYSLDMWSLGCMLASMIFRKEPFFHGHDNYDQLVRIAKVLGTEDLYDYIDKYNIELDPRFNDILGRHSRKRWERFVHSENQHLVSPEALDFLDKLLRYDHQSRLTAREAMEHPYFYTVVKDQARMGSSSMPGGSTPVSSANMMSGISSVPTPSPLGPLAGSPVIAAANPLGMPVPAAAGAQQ
T1 sequence (P67870 2-215 partner limits assumed): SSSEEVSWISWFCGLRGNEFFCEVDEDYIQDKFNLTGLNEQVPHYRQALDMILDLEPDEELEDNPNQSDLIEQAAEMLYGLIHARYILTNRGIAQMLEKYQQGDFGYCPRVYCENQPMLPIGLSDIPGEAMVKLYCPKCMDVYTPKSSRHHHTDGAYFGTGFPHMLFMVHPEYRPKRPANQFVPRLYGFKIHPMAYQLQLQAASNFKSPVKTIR

CK2 IC50 relative to that for LY303511 (recombinant CK2; recombinant CK2 in vitro): one tenth
pIC50 (recombinant CK2; recombinant CK2 in vitro, read-out: approximate IC50 for CK2): ~5.00
SMILES: O=c1cc(N2CCOCC2)oc2c(-c3ccccc3)cccc12 [LY294002, 2-(4-morpholinyl)-8-phenyl-4H-1-benzopyran-4-one, reference compound]
levels of mTOR mRNA (A549 cells): 1.7 fold
mRNA encoding CK2α′ (A549 cells): 1.8 fold
CK2 activity (recombinant CK2; 100 ng recombinant CK2, 10 min at 30° C.): concentration-dependent inhibition of CK2 activity

— patent US8044057B2, “Methods for suppressing an immune response or treating a proliferative disorder” (The United States of America as represented by the …, priority 2003, dated 2011)
